According to ChEMBL document CHEMBL1157697, “Novel ester and acid derivatives of the 1,5-diarylpyrrole scaffold as anti-inflammatory and analgesic agents. Synthesis and in vitro and in vivo biological evaluation” (J Med Chem, 2010):
Activity calls are given as the source filed them. The rule behind the calls is not given here.

What was measured:
[1] = Metabolic stability in human liver microsomes at 10 uM; format: ADME, Microsome; conditions: read-out: Stability; also: time not given here
[2] = tested on: Rattus norvegicus; test: Antiinflammatory activity against carrageenan-induced paw edema rat inflammatory model assessed as paw pressure at 20 mg/kg, po after 120 mins; format: functional
[3] = tested on: Rattus norvegicus; test: Antiinflammatory activity against carrageenan-induced paw edema rat inflammatory model assessed as paw pressure at 20 mg/kg, po after 60 mins; format: functional
[4] = Metabolic stability in human liver microsomes at 0.1 uM; format: ADME, Microsome; conditions: read-out: Stability; also: time not given here
[5] = tested on: Rattus norvegicus; test: Antiinflammatory activity against carrageenan-induced paw edema rat inflammatory model assessed as paw volume at 20 mg/kg, po after 60 mins; format: functional
[6] = molecular target: T1, Prostaglandin G/H synthase 1 (Mus musculus, UniProt P22437)
T1 sequence (P22437 whole entry): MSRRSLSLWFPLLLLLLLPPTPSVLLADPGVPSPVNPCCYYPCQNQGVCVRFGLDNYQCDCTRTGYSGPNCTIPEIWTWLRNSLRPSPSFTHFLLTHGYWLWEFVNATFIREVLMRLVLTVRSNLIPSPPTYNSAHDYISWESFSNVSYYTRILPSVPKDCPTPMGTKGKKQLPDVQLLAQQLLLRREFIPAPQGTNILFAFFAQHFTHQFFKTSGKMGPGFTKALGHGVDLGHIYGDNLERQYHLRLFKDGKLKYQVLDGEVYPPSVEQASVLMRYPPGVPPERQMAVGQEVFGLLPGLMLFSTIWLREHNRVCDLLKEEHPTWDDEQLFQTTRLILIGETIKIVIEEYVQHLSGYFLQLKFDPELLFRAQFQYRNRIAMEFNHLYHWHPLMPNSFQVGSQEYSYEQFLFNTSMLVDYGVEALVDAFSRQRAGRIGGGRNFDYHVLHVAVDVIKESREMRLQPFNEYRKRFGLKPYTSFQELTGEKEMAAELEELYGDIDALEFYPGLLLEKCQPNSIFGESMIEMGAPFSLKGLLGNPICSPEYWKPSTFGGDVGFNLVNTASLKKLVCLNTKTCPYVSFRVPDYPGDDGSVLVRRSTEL
Description: Inhibition of COX1-dependent PGE2 production in LPS-stimulated mouse J774 cells by RIA

[7] = tested on: Rattus norvegicus; test: Antiinflammatory activity against carrageenan-induced paw edema rat inflammatory model assessed as paw pressure at 20 mg/kg, po after 30 mins; format: functional
[8] = organism: Mus musculus; test: Selectivity index, ratio of IC50 for mouse COX1 to IC50 for mouse COX2
[9] = tested on: Rattus norvegicus; test: Antiinflammatory activity against carrageenan-induced paw edema rat inflammatory model assessed as suppression of paw edema at 20 mg/kg, po after 60 mins; format: functional
[10] = molecular target: T2, Prostaglandin G/H synthase 2 (Mus musculus, UniProt Q05769)
T2 sequence (Q05769 whole entry): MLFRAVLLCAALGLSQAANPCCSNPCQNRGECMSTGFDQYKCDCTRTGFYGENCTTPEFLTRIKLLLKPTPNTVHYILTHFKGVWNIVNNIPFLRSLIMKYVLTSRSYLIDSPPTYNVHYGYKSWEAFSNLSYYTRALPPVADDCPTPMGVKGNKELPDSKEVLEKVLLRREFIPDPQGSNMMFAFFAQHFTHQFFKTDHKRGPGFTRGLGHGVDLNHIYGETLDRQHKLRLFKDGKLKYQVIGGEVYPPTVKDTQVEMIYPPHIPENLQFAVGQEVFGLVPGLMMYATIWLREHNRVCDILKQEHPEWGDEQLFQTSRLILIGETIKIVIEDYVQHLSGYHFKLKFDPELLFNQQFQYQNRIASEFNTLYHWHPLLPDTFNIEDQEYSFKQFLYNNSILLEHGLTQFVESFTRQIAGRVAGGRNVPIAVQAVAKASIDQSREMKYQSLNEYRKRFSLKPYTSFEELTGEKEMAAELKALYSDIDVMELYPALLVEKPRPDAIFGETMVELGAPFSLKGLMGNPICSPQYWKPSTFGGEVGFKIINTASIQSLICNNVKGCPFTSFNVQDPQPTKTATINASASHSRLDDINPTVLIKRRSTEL
Description: Inhibition of COX2-dependent PGE2 production in LPS-stimulated mouse J774 cells by RIA

[11] = tested on: Mus musculus; test: Analgesic activity against acetic acid-induced mouse abdominal constriction assessed as writhing at 20 mg/kg, po; conditions: Abdomen

| SMILES | remaining at 10 µM [1] [%] | Activity [2] [g] | Activity [3] [g] | remaining at 0.1 µM [4] [%] | Activity [5] [mL] | IC50 [6] [µM] | Activity [7] [g] | Ratio IC50 [8] | Activity [9] [%] | IC50 [10] [nM] | Activity [11] |
| --- | --- | --- | --- | --- | --- | --- | --- | --- | --- | --- | --- |
| CCCCOC(=O)Cc1cc(-c2ccc(S(C)(=O)=O)cc2)n(-c2cccc(F)c2)c1C | 2 | 45.2 | 46.9 | 0 | 1.71 | > 100 | 49.7 | > 4100 | 67.2 | 24 |  |
| CCCCOC(=O)Cc1cc(-c2ccc(S(C)(=O)=O)cc2)n(-c2ccc(F)c(F)c2)c1C | 15 | 56.6 | 59.2 | 2 | 1.52 | > 100 | 52.7 | > 3300 | 73.6 | 30 | Active |
| COc1ccc(-n2c(-c3ccc(S(C)(=O)=O)cc3)cc(CC(=O)O)c2C)cc1 | 84 | 36.2 | 39.8 | 77 | 1.81 | > 100 | 52.3 | > 580 | 50.9 | 170 |  |
| CCOC(=O)Cc1cc(-c2ccc(S(C)(=O)=O)cc2)n(-c2ccccc2)c1C |  |  |  |  |  |  |  | > 2500 |  |  |  |
| CCCCOC(=O)Cc1cc(-c2ccc(S(C)(=O)=O)cc2)n(-c2ccccc2)c1C | 3 | 42.6 | 46.3 | 7 | 1.68 | > 100 | 52.5 | > 7100 | 66.3 | 14 |  |
| Cc1c(CC(=O)O)cc(-c2ccc(S(C)(=O)=O)cc2)n1-c1ccc(F)c(F)c1 | 100 | 48.6 | 54.1 | 100 | 1.42 | 10 | 58.3 | 38 | 90.9 | 260 | Active |
| Cc1c(CC(=O)OC(C)C)cc(-c2ccc(S(C)(=O)=O)cc2)n1-c1ccc(F)c(F)c1 | 13 | 58.3 | 52.3 | 0 | 1.39 | > 100 | 64.8 | > 4700 | 89 | 21 |  |
| COc1ccc(-n2c(-c3ccc(S(C)(=O)=O)cc3)cc(CC(=O)OC(C)C)c2C)cc1 | 1 | 41.7 | 56.7 | 7 | 1.41 | > 100 | 51 | > 4500 | 77.2 | 22 |  |
